Results published in article PMC8911585, “Unique Properties of Heme Binding of the Porphyromonas gingivalis HmuY Hemophore-like Protein Result from the Evolutionary Adaptation of the Protein Structure” (Molecules, 2022).
Where two headings read alike, the source gives them in different places.

Tests used:
HmuY [1] = target: T1, HmuY (Porphyromonas gingivalis, UniProt A2I2W2, H134M); experiment: biochemical
HmuY [2] = target: T1, HmuY; experiment: biochemical; remark: listed apart in the source

T1 sequence (A2I2W2 26-216 H134M): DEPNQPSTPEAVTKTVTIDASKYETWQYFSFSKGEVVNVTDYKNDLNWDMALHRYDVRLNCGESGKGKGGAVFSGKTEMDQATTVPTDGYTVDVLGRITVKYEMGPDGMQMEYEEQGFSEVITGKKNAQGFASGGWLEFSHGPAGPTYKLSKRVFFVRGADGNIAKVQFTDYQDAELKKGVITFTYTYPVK

| SMILES | Kd (HmuY [1]) | Kd (HmuY [2]) |
| --- | --- | --- |
| C=CC1=C(C)C2=Cc3c(C=C)c(C)c4[n]3[Fe][n]3c(c(C)c(CCC(=O)O)c3=CC3=NC(=C4)C(C)=C3CCC(=O)O)=CC1=N2 [Fe(II)heme] | 0.011 µM |  |
| C=CC1=C(C)C2=Cc3c(C=C)c(C)c4[n]3[Fe]([Cl])[n]3c(c(C)c(CCC(=O)O)c3=CC3=NC(=C4)C(C)=C3CCC(=O)O)=CC1=N2 [Fe(III)heme] |  | 12 µM |
